Results from PubChem BioAssay (NCI).
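96-well plates; 48 h exposure; 5 concentrations. Endpoints by linear interpolation between flanking doses. Not reached: highest tested concentration assigned. GI50 is the concentration that inhibits growth by half. TGI: concentration producing complete growth inhibition.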

Key:
Experiment in all cases: NCI anticancer screen, dose series, 48 h
UO-31 renal = test system: UO-31 renal
M14 melanoma = test system: M14 melanoma
SK-MEL-28 melanoma = test system: SK-MEL-28 melanoma
K-562 leukemia = test system: K-562 leukemia
ACHN renal = test system: ACHN renal
MALME-3M melanoma = test system: MALME-3M melanoma
NCI-H23 lung = test system: NCI-H23 lung
EKVX NSCLC = test system: EKVX NSCLC
HCC-2998 colon = test system: HCC-2998 colon
CAKI-1 renal = test system: CAKI-1 renal
T-47D breast = test system: T-47D breast
MDA-N = test system: MDA-N

Row | SMILES | TGI (UO-31 renal) | TGI (M14 melanoma) | TGI (SK-MEL-28 melanoma) | TGI (K-562 leukemia) | TGI (ACHN renal) | TGI (MALME-3M melanoma) | TGI (NCI-H23 lung) | TGI (EKVX NSCLC) | TGI (HCC-2998 colon) | TGI (CAKI-1 renal) | TGI (T-47D breast) | TGI (MDA-N) | GI50 (HCC-2998 colon)
1 | C1CCC(N=C2N(C3CCCCC3)C(=NC3CCCCC3)N2C2CCCCC2)CC1 | > 100 µM | > 100 µM | > 100 µM | > 100 µM | > 100 µM | > 100 µM | > 100 µM | > 100 µM | > 100 µM |  |  |  | 
2 | CC1=NN(c2nc(N)nc(C(C)Cl)n2)C(C)(C)C1 (stereo unspecified) | > 100 µM | > 100 µM | > 100 µM | > 100 µM | > 100 µM |  | > 100 µM | > 100 µM | > 100 µM | > 100 µM | > 100 µM |  | 
3 | Cn1c(CNc2ccc(-c3n[nH]c(=S)n3C)cc2)n[nH]c1=S | > 100 µM | > 100 µM | > 100 µM | > 100 µM | > 100 µM | > 100 µM | > 100 µM | > 100 µM | > 100 µM | > 100 µM |  | > 100 µM | 
4 | c1cc(-c2ccc(-c3ccsc3)s2)cs1 | 98.4 µM | > 100 µM |  | > 100 µM | > 100 µM |  | 61 µM | > 100 µM | > 100 µM | > 100 µM | > 100 µM | > 100 µM | 
5 | CCOC(=O)c1cn(CC)c(=O)n2c1nc1ccccc12 | 10.2 µM | > 100 µM | > 100 µM | > 100 µM | > 100 µM |  | > 100 µM | > 100 µM | > 100 µM | > 100 µM | > 100 µM | > 100 µM | 
6 | COc1ccc(-c2oc3cc(-c4cc5oc(-c6ccc(OC)cc6)c(-c6ccc(OC)cc6)c5cc4OC)c(OC)cc3c2-c2ccc(OC)cc2)cc1 | > 100 µM | > 100 µM | > 100 µM | > 100 µM | > 100 µM | > 100 µM | > 100 µM | > 100 µM | > 100 µM | > 100 µM |  | > 100 µM | 
7 | O=C1CC(c2ccc(Cl)cc2)=Nc2ccccc2N1 | > 100 µM | > 100 µM | > 100 µM | > 100 µM | > 100 µM | > 100 µM | > 100 µM | > 100 µM | > 100 µM | > 100 µM |  |  | 
8 | CCOC(=O)C1S(=O)(=O)OCCOS1(=O)=O | > 100 µM | > 100 µM | > 100 µM | > 100 µM |  | > 100 µM | > 100 µM | > 100 µM | > 100 µM | > 100 µM |  |  | 
9 | O=C(Nn1c(-c2ccccc2)nc2ccccc2c1=O)c1ccc(Cl)cc1 | > 100 µM | > 100 µM | > 100 µM | > 100 µM | > 100 µM | > 100 µM | > 100 µM | > 100 µM | > 100 µM |  | > 100 µM | > 100 µM | 
10 | CC(=O)c1ccc(Nc2c3c(nc4ccccc24)CCCC3)cc1 | > 67.1 µM | 41.7 µM | > 100 µM | > 100 µM | > 100 µM |  | 43.4 µM | > 84.6 µM | > 100 µM | > 44 µM | > 52.2 µM | 11.2 µM | 
11 | O=C(O)CCCc1ccc2c(c1)CC1(C2)Cc2cc3c(cc2C1)CCCC3 | 34.2 µM | 30.9 µM |  | 25.9 µM | 33.1 µM | 41.5 µM | 49.2 µM | > 100 µM | 41.4 µM |  | > 100 µM | 39.9 µM | 
12 | CN(NC1=NCCO1)c1ccc2ccccc2c1 | > 100 µM | > 100 µM | > 100 µM | 66.1 µM | > 100 µM | > 100 µM | > 100 µM | > 100 µM | 99.4 µM | > 100 µM | > 100 µM |  | 
13 | CC(=O)c1ccc(N=NN2CCCC2)cc1 | > 100 µM | > 100 µM |  | > 100 µM | > 100 µM |  | > 100 µM | > 100 µM | > 100 µM | > 100 µM | > 100 µM | > 100 µM | 
14 | Cc1cc(O)c(/C=N/C(N)=S)c(=O)o1 | > 100 µM | > 100 µM |  |  | > 100 µM |  | > 100 µM | > 100 µM | > 100 µM | > 100 µM |  | > 100 µM | 
15 | Cc1c(C)c(S(=O)(=O)N(CCCCN)OCCCN)c(C)c2c1OC(C)(C)CC2 | 43 µM | 98.3 µM | 50.7 µM | > 100 µM | 47.2 µM |  | 38.1 µM | 31.9 µM | 20.8 µM | > 100 µM | > 100 µM | > 100 µM | 
16 | COC(=O)c1cc(S(=O)(=O)NC2=NCC(C)NN2)c(S)cc1Cl (stereo unspecified) | > 100 µM | > 100 µM | > 100 µM | > 100 µM | > 100 µM | 97.5 µM | > 100 µM | > 100 µM | > 100 µM | > 100 µM |  | > 100 µM | 
17 | C=CCON(C(=O)OC(C)(C)C)C(C)(C)C | > 100 µM | > 100 µM | > 100 µM | > 100 µM | > 100 µM | > 100 µM | > 100 µM | > 100 µM | > 100 µM | > 100 µM | > 100 µM |  | 
18 | C[C@H]1CC[C@@]2(OC1)O[C@H]1C[C@H]3[C@@H]4CC[C@@H]5C[C@@H](OC6OC(CO)C(O)C(O)C6OC6OC(CO)C(O)C(O)C6O)CC[C@]5(C)[C@H]4CC[C@]3(C)[C@H]1[C@@H]2C (stereo partly specified) | 3.67 µM | 3.75 µM |  | 4.33 µM | 3.82 µM | 4.5 µM | 4.06 µM | 3.79 µM | 3.71 µM | 3.44 µM | 3.85 µM |  | 
19 | O=C1CC(c2cccc(Cl)c2)Nc2ccc(N3CCCC3)cc21 (stereo unspecified) | 50.7 µM | > 100 µM | > 100 µM | 0.017 µM | > 100 µM |  |  | > 100 µM | 0.0611 µM | > 100 µM | > 100 µM |  | 0.0148 µM
20 | O=C(c1ccc(Cl)cc1)N(C(=O)N1CCCCC1)c1ccccc1 | > 100 µM | > 100 µM | > 100 µM | > 100 µM | > 100 µM | > 100 µM | > 100 µM | > 100 µM |  | > 100 µM | 89 µM | > 100 µM | 
